Read-outs that look alike come from different tables or passages of the source. Starred links: 1 amine or outer side, 2 acyl side, 3 side chain; linkers in the order of their positions; H or OH if unused. Positions of bridges follow the written chain, without caps; N, C: chain ends. Non-standard residues stand in square brackets, D forms with d. Chains are numbered I, II in the order given. X1 = O=C(CCOCCOCCOCCN(CCOCCOCCOCCn1cc(CCC(=O)[*:2])nn1)CCOCCOCCOCCn1cc(CCC(=O)[*:3])nn1)[*:1]; X2 = O=C(CCSCCC(=O)[*:1])N1CN(C(=O)CC[*:2])CN(C(=O)CC[*:3])C1; TATA = O=C(CC[*:1])N1CN(C(=O)CC[*:2])CN(C(=O)CC[*:3])C1; Hyp = O=C(O)[C@@H]1C[C@@H](O)CN1; hArg = N=C(N)NCCCC[C@H](N)C(=O)O; tBuAla = CC(C)(C)C[C@H](N)C(=O)O; Nle = CCCC[C@H](N)C(=O)O; Mpa = O=C(O)CCS
How the values were obtained:
[1] = target: CD137 (Homo sapiens, UniProt Q07011); assay: CD137 reporter assay (Promega, Jurkat cells) in co-culture with EphA2-expressing tumor cells (A549, PC3, HT29); format: cell-based; design: host or cells: Jurkat reporter cells
Method in brief: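 Promega CD137 luciferase reporter Jurkat cells co-cultured with tumor cells (RKO for PD-L1; A549, PC3, HT29 for EphA2) and serially diluted test articles in RPMI + 1% FBS, 6 h at 37° C. Bio-Glo luminescence as fold change over cells alone; log(agonist)-response fit gives EC50 (nM) and max fold induction.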

[2] = system: MC38 tumors; assay: Anti-tumor activity of EphA2/CD137 complexes in syngeneic MC38 tumor model; format: in vivo, C57BL/6J-hCD137 mice; conditions: 15 mg/kg IV Q3D, 7 doses; day 28
Procedure: 6-8 weeks old C57BL/6J-hCD137 female mice were inoculated in the flank with 1×10^6 syngeneic MC38 cells. When tumors reached 76 mm^3 size on average, mice were randomized to receive vehicle or BCY12491 (intraperitoneal administration). BCY12491 was administered (n=6 mice/treatment cohort) at either 5 mg/kg or 15 mg/kg either daily (QD) or every three days (Q3D). QD dosed mice received 22 doses of BCY12491 and Q3D dosed mice received 8 doses of BCY12491. Tumor growth was monitored by caliper measurements until day 73 after treatment initiation. The results of this experiment may be seen in FIG. 9 where it can be seen that the effect of BCY12491 on tumor growth becomes apparent in the first two weeks of the dosing period reducing the tumor growth and causing reduction of volumes of many of the treated tumors. By day 41, 15 out of 24 BCY12491 treated animals had completely responded to the treatment and had no palpable tumors left.
6-8 week old female C57BL/6J-hCD137 mice [B-hTNFRSF9(CD137) mice; Biocytogen] were implanted subcutaneously with 1×10^6 MC38 cells. Mice were randomized into treatment groups (n=6/cohort) when average tumor volumes reached around 76 mm^3 and were treated with daily doses of vehicle (25 mM histidine, 10% sucrose, pH7). BCY12491 treatment was conducted at two different dose levels (5 and 15 mg/kg) and two different dosing schedules (QD: daily; Q3D: every three days). Animals received either 22 QD doses or 8 Q3D doses intraperitoneally (ip). Tumor growth was monitored until tumor reached volumes over 2000 mm^3 or until 73 days after treatment initiation. After Day 73, 5 complete responder animals were re-challenged with MC38 tumor cell implantation alongside with 5 naïve C57BL/6J-hCD137 mice. Tumor growth was monitored for 20 days.
(§1) 6-8 week old female C57BL/6J-hCD137 mice [B-hTNFRSF9(CD137) mice; Biocytogen] were implanted subcutaneously with 1×10^6 MC38 cells. Mice were randomized into treatment groups (n=6/cohort) when average tumor volumes reached around 92 mm^3 and were treated intravenously with Q3D doses of vehicle (25 mM histidine, 10% sucrose, pH7), 15 mg/kg of BCY12730, BCY12723 or BCY12491 (7 Q3D doses). Tumor growth was monitored for 28 days or until tumors exceeded 2000 mm^3.
as §1, with “76” for “92”, “twice weekly (BIW)” for “Q3D”, “5” for “15”, “BCY13048, BCY13050,” for “BCY12730, BCY12723”, “(6 BIW” for “(7 Q3D”

[3] = Pharmacokinetics in SD rats; format: in vivo; conditions: rat, in vivo, IV Inf (15 minutes)
Procedure: Male SD Rats were dosed with each heterotandem Bicycle peptide complex formulated in 25 mM Histidine HCl, 10% sucrose pH 7 by IV bolus or IV infusion (15 minutes). Serial bleeding (about 80 μL blood/time point) was performed via submandibular or saphenous vein at each time point. All blood samples were immediately transferred into prechilled microcentrifuge tubes containing 2 μL K2-EDTA (0.5M) as anti-coagulant and placed on wet ice. Blood samples were immediately processed for plasma by centrifugation at approximately 4° C., 3000 g. The precipitant including internal standard was immediately added into the plasma, mixed well and centrifuged at 12,000 rpm, 4° C. for 10 minutes. The supernatant was transferred into pre-labeled polypropylene microcentrifuge tubes, and then quick-frozen over dry ice. The samples were stored at […] or below as needed until analysis. 7.5 μL of the supernatant samples were directly injected for LC-MS/MS analysis using an Orbitrap Q Exactive in positive ion mode to determine the concentrations of analyte. Plasma concentration versus time data were analyzed by non-compartmental approaches using the Phoenix WinNonlin 6.3 software program. C0, CI, Vdss, T½, AUC(0-last), AUC(0-inf), MRT(0-last), MRT(0-inf) and graphs of plasma concentration versus time profile were reported.

[4] = system: human PBMCs; assay: Human PBMC co-culture cytokine secretion assay with EphA2-expressing tumor cells (MC38, HT-1080, HT29); format: cell-based; conditions: human PBMC-MC38 co-culture
Procedure: […] MC38 were cultured in Dulbecco's Modified Eagle Medium supplemented with 10% heat inactivated Fetal Bovine Serum (FBS), 1× Penicillin/Streptomycin, 10 mM HEPES, and 2 mM L-Glutamine (referred to as R10 medium). Frozen PBMCs from healthy human donors were thawed and washed once in room temperature PBS with benzonase, and then resuspended in RPMI supplemented with 10% heat inactivated Fetal Bovine Serum (FBS), 1× Penicillin/Streptomycin, 10 mM HEPES, and 2 mM L-Glutamine (herein referred to as R10 medium). 100 μl of PBMCs (1,000,000 PBMCs/ml) and 100 μl of tumor cells (100,000 tumor cells/ml) (Effector:Target cell ratio (E:T) 10:1) were plated in each well of a 96 well flat bottom plate for the co-culture assay. 100 ng/ml of soluble anti-CD3 mAb (clone OKT3) was added to the culture on day 0 to stimulate human PBMCs. Test, control compounds, or vehicle controls were diluted in R10 media and 50 μL was added to respective wells to bring the final volume per well to 250 μL. Plates were covered with a breathable film and incubated in a humidified chamber at 37° C. with 5% CO2 for two days. […] Briefly, the standards and samples were added to a black 96 well plate. Microparticle cocktail (provided in Luminex kit, R&D Systems) was added and shaken for 2 hours at room temperature. The plate was washed 3 times using a magnetic holder. Biotin cocktail was then added to the plate and shaken for 1 hour at RT. The plate was washed 3 times using a magnetic holder. Streptavidin cocktail was added to the plate and shaken for 30 minutes at RT. The plates were washed 3 times using a magnetic holder, resuspended in 100 μL of wash buffer, shaken for 2 minutes at RT, and read using the Luminex 2000. Raw data were analyzed using built-in Luminex software to generate standard curves and interpolate protein concentrations, all other data analyses and graphing were performed using Excel and Prism software. Data represents one study with three independent donor PBMCs tested in experimental duplicates.
Similarly, PBMCs from healthy donors were co-cultured with EphA2 expressing cancer cells (MC38 and HT-1080) at a ratio of 5:1 in presence of anti-CD3 and BCY13272. […]

[5] = system: MC38 tumor tissue; assay: Immune response in MC38 tumors (nCounter transcriptional analysis, CD8 IHC); format: in vivo, C57BL/6J-hCD137 mice; conditions: Q3D x3, peptides 15 mg/kg IV, anti-CD137 2 mg/kg ip
Procedure: 6-8 week old female C57BL/6J-hCD137 mice [B-hTNFRSF9(CD137) mice; Biocytogen] were implanted subcutaneously with 1×10^6 MC38 cells. Mice were randomized into treatment groups when average tumor volumes reached around 240 mm^3 and were treated (n=6/treatment cohort) with vehicle (25 mM histidine, 10% sucrose, pH7) intravenously (IV), 15 mg/kg BCY12491 (EphA2: CD137 1:2 Heterotandem Complex) IV, 15 mg/kg BCY13626 (non-binding control for EphA2) IV or 2 mg/kg Anti-CD137 (urelumab analogue) intraperitoneally. All treatments were given Q3D for three doses and tumor tissues were harvested 1 hour after the last dose. Part of the tumor tissue was used for RNA isolation for transcriptional analysis and a part of the tumor tissue was used for formalin fixed paraffin embedded (FFPE) sample preparation for immunohistochemical (INC) analysis. RNA was isolated from tumor tissues using RNAeasy kit [Qiagen] and transcriptional analysis was performed using nCounter Mouse PanCancer IO 360 panel (Nanostring) from 100 ng RNA/tumor. Data was analysed using the nSolver Analysis Software (Nanostring). CD8+ tumor infiltrating cells were stained in FFPE tissue sections using anti-mouse CD8 antibody (Abcam, #ab217344) and Ventana Discovery OmniMap anti Rabbit-HRP Kit (Ventana #760 4310).

CD137, sequence (Q07011 24-255): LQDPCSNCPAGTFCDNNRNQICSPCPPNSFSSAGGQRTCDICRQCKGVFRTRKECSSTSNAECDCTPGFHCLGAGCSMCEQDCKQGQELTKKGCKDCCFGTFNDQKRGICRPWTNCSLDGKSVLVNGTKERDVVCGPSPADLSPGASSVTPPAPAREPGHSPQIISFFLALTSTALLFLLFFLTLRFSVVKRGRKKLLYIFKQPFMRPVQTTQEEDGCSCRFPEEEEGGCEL

**Q.** Which results are given for “I: A[hArg]DC[Hyp]LVNPLCLHP[dD]W[hArg]C-NH2 / II: [Mpa][tBuAla]PE[dK]PYCFADPY[Nle]C-NH2 / III: [tBuAla]PE[dK]PYCFADPY[Nle]C-NH2 (linker I:4-I:11-I:18, II:1-II:8-II:15 via TATA; linker I:N-II:5-III:4 via X1; linker III:N-III:7-III:14 via X2) [BCY12730]”?
**A.** Emax (fold induction over background) ([1]; CD137 reporter coculture assay with PC3 tumor cells): 61.73; EC50 ([1]; EC50, CD137 reporter coculture assay with PC3 tumor cells): 0.25 nM; complete responses [2]: 3 out of 6; half-life ([3]; iv, read-out: T1/2 (converted)): 120 min; clearance ([3]; read-out: Clp): 18 mL/min/kg; Vd ([3]; read-out: Vdss): 2.6 L/kg; EC50 ([4]; Donor 1, 48 h incubation, read-out: Donor 1 EC50 of IFNγ secretion): 0.13 nM; EC50 ([4]; Donor 2, 48 h incubation, read-out: Donor 2 EC50 of IFNγ secretion): 0.19 nM

**Q.** What does the source list for “anti-CD137 antibody: Anti-CD137 (urelumab analogue)”?
**A.** CD8+ cell infiltration in tumor (IHC) [5]: Some increase in CD8+ cell infiltration; T cell score in tumor tissue ([5]; vs vehicle): increased significantly; cytotoxic cell score in tumor tissue ([5]; vs vehicle): increased significantly

— patent publication US20230129258A1, “HETEROTANDEM BICYCLIC PEPTIDE COMPLEXES” (BicycleTx Limited, priority 2019, published 2023)
